For one experiment, the system named is A549 (p53 wild type). Format: cell-based. To be noted: p53 mRNA 1 μg/mL; metformin 4 or 6 mg/mL (FIG. 60). The protocol:
Experimental Methods. […] Then, the cell viabilities of these cells were measured by Alamar blue assay. […] The cells without receiving any treatments were labeled as the “Control”.

The test system of experiment [1] is p53-null H1299 cells. Put plainly: Cell viability by AlamarBlue assay. Format: cell-based, human. The protocol:
(§1) Cell viability and transfection efficiency of EGFP-mRNA NPs. The p53-null Hep3B cells or H1299 cells were plated in 96-well plates at a density of 3×10^3 cells per well. […] Lip2k was used as a positive control for transfection efficiency comparison with the NPs. Cell viability was tested by AlamarBlue assay, which is a non-toxic assay that can continuously check real-time cell proliferation through a microplate reader (TECAN, Infinite M200 Pro). Absorbance was examined by a 96-well SpectraMax plate reader (Molecular Devices) at 545 nm and 590 nm. To measure the transection efficiency, cells were treated with EGFP-mRNA by NPs or Lip2k for 24 hours, detached with 2.5% EDTAtrypsin, and collected in PBS solution, followed by evaluating GFP expression using flow cytometry (BD Biosystems). The percentages of EGFP-positive cells were calculated and analyzed by Flowjo software.
(§2) Combination index (CI) calculation.
(Alamar Blue is a resazurin reagent that responds to reducing activity.)

Experiment [2] has as its system p53-null Hep3B cells. Put plainly: Cell viability by AlamarBlue assay. Format: cell-based, human. The protocol:
as §1, §2

A further experiment relates to H1299 cells. Put plainly: Apoptosis detection (Annexin V/PI, flow cytometry). Format: cell-based, human. As to conditions: AnnV/PI co-staining. The protocol:
(§3) Apoptosis and cell cycle detection in vitro. We used an FITC Annexin V/Propidium iodide (PI) apoptosis detection kit (BD Biosciences) to detect apoptosis. In brief, 1×10^6 cells were seeded into 6-well plates. After attachment overnight, cells were treated with p53-mRNA NPs for 24 hours before being mixed with 1 ml fresh medium and continuing to culture for another 24 h. All the attached cells together with the floating cells in the medium were harvested, washed with PBS twice, and dispersed in 1× binding buffer solution (ice-cold) at a concentration of 1×10^6 cells/ml. 5 μl of FITC Annexin V and 5 μl of PI were further mixed with 100 μl of the cell suspension. We then incubated the mixture at room temperature for 15 min in a dark environment and performed analysis using the FACS Calibur Flow Cytometer (BD Biosystems). Cells were incubated for 48 hours with empty NPs, naked p53-mRNA, or p53-mRNANPs washed in PBS and fixed with 70% ethanol overnight, then washed in PBS twice and incubated with PI for 30 minutes at 37° C.; cell-cycle fractions (percentage of cells with fractional DNA content in G1, S, and G2/M phases of the cycle) were estimated by flow cytometry and analyzed by Flowjo software.
(In general: A flow cytometer gives signals particle by particle.)

The next experiment concerns Hep3B cells. Put plainly: Apoptosis detection (Annexin V/PI, flow cytometry). It is filed as cell-based, human. To be noted: AnnV/PI co-staining. The protocol: as §3
The test system of experiment [3] is p53-null Hep3B cells. Briefly: Western blot, IF, TEM and GFP-LC3B CLSM analysis of p53, cell cycle, apoptosis, mTOR and autophagy pathways. Format: cell-based, human. The protocol:
(§4) Western blot assay. Cells or dissected tumors in each group were lysed in a lysis buffer (1 mM EDTA, 20 mM Tris-HCl pH 7.6, 140 mM NaCl, 1% aprotinin, 1% NP-40, 1 mM phenylmethylsulphonyl fluoride, and 1 mM sodium vanadate), and supplemented with protease inhibitor cocktail (Cell Signaling Technology). Protein concentration was detected by a bicinchoninic acid (BCA) Protein Assay Kit (Pierce). 25 μg of proteins were loaded on 6-12% precast gels (Invitrogen), and then transferred to Immobilon PVDF membranes (Bio-Rad, 162-0176 and 162-0177). The transferred membranes were blocked with 5% bovine serum albumin (BSA) in TBST (150 mM NaCl, 50 mM Tris-HCl at pH 7.4, and 0.1% Tween 20) for 1 hour at room temperature, and were further incubated with primary antibodies overnight at 4° C. The immunoreactive bands were detected with appropriate HRP-conjugated secondary antibodies. Band density was detected by enhanced chemiluminescence (ECL) detection system (Amersham/GE Healthcare).
Immunofluorescent staining and TEM detection. Cells or tumor tissues were fixed with 4% paraformaldehyde (Electron Microscopy Sciences) at room temperature for 15 min, followed by permeabilization in 0.2% Triton X-100-PBS for 10 min. Samples were further incubated with PBS blocking buffer (containing 2% BSA, 2% normal goat serum, and 0.2% gelatin) at room temperature for 30 min. Afterwards, the samples were incubated with primary antibody overnight at 4° C., washed with PBS, and incubated in goat anti-rat-Alexa Fluor 647 (Molecular Probes) in blocking buffer (1:1000 dilution) at room temperature for 60 min. Stained samples were washed with PBS, nuclei were stained using Hoechst 33342 (Molecular Probes-Invitrogen, H1399, 1:2000 dilution in PBS), and the samples were mounted on slides with Prolong Gold antifade mounting medium (Life Technologies). […]
(§5) Quantification of GFP-LC3B puncta. […] A confocal fluorescence microscope was used to observe the fluorescence of GFP-LC3B. To quantify the extent of autophagy, cells showing accumulation of GFP-LC3B in vacuoles or dots were counted. […]
In general terms: Immunoblotting shows a protein as a band on a membrane.

The subject of experiment [4] is p53-null H1299 cells. Put plainly: Western blot, IF, TEM and GFP-LC3B CLSM analysis of p53, apoptosis, mTOR and autophagy pathways. Format: cell-based, human. The protocol:
as §4
Immunofluorescent staining and TEM detection. […]
as §5

For experiment [5], the system named is p53-null Hep3B xenografts. Briefly: In vivo therapeutic efficacy in p53-null HCC xenograft tumor model. Set-up: species or system athymic nude mice. As to conditions: mRNA 750 μg/kg IV; everolimus 5 mg/kg oral; every three days, six treatments. The protocol:
In vivo therapeutic efficacy in p53-null HCC xenograft tumor model. […] The day that first treatment was performed was designated as Day 0. […] The body weights of all the mice were also recorded over this period.
as §2

Experiment [6] deals with p53-null Hep3B tumor sections. Put plainly: In vivo mechanisms (IF, IHC, TUNEL, WB of tumor sections). To be noted: mouse. Set-up: species or system athymic nude mice. The protocol:
In vivo mechanisms underlying the p53-mRNA NP-mediated sensitization to everolimus. […] The mice were sacrificed at 12, 24, 48, or 60 hours after the last injection of p53-mRNANPs, and the tumors were harvested for sections. Mice bearing p53-null Hep3B liver xenografts and intravenously injected with PBS were used as controls and sacrificed at 60 hours after the last injection. The expression of p53 and C-CAS3 was monitored via IF detection. Moreover, tumor sections from both the PBS group and p53-mRNANP group (60 hours after the last injection) were analyzed by IHC. The expression of p53, tumor cell apoptosis markers (BAX, C-CAS3), and proliferation markers (Ki67 and PCNA) was further assessed.
Western blot assay. Cells or dissected tumors in each group were lysed in a lysis buffer (1 mM EDTA, 20 mM Tris-HCl pH 7.6, 140 mM NaCl, 1% aprotinin, 1% NP-40, 1 mM phenylmethylsulphonyl fluoride, and 1 mM sodium vanadate), and supplemented with protease inhibitor cocktail (Cell Signaling Technology). Protein concentration was detected by a bicinchoninic acid (BCA) Protein Assay Kit (Pierce). […] The immunoreactive bands were detected with appropriate HRP-conjugated secondary antibodies. Band density was detected by enhanced chemiluminescence (ECL) detection system (Amersham/GE Healthcare). […]

The subject of experiment [7] is Hep3B-Luc orthotopic tumors. Briefly: In vivo therapeutic efficacy in p53-null orthotopic HCC model (bioluminescence). To be noted: mRNA 750 μg/kg IV; everolimus 5 mg/kg oral; every three days, 4 rounds. Set-up: species or system athymic nude mice. The protocol: In vivo therapeutic efficacy in p53-null orthotopic HCC model. To establish the orthotopic HCC model, luciferase-expressing Hep3B (Hep3B-Luc) cells were used. Six-week-old female athymic nude mice were obtained from Zhejiang Medical Academy Animal Center. Animal studies were conducted following the protocol approved by the Institutional Animal Ethics Committee of Hangzhou Normal University. First, anterior abdominal exposure was made and a cotton swab with iodine volts was used to sterilize this area. A one-centimeter-long midline incision was made along the anterior abdominal wall below the xiphoid after anesthesia by isoflurane, and ˜5×10^6 p53-null Hep3B-Luc cells in 50 μl of PBS were injected into the left lobe of the livers of the athymic nude mice (30 in total). The injection depth was not deeper than 2 mm. The inner and outer layers of the abdominal cavity were sutured one by one after tumor cell inoculation. […] The first treatment was performed at Day 0. On Day 12, all the mice were sacrificed. Mice were monitored for tumor growth by bioluminescent in vivo imaging every 6 days (Day 0, 6, and 12). To do this, these mice were injected intraperitoneally with 150 mg/kg D-luciferin substrate (PerkinElmer, Catalog #122799) and imaged by an IVIS Lumina S5 (PerkinElmer) imaging system.

For experiment [8], the system named is p53-null H1299 liver metastases. Briefly: In vivo therapeutic efficacy in p53-null disseminated NSCLC model (liver metastases). To be noted: mRNA 750 μg/kg IV; everolimus 5 mg/kg oral; five rounds. Also noted: species or system athymic nude mice. The protocol: In vivo therapeutic efficacy in p53-null disseminated NSCLC model. To establish the experimental disseminated metastatic model, ˜1×10^6p53-null H1299 cells in 100 μl of PBS were injected via tail vein into female athymic nude mice. […] The first treatment was performed at Day 0. On Day 15, all the mice were sacrificed, and one liver was randomly selected from each group for H&E staining. The liver section from each group was divided into four regions for calculation of the metastasis numbers (FIG. 55).

Setting [9] is: increasing everolimus concentrations.

Where only a bound is given, the exact number is not on record here.

As to `N.N.[Cl][Pt][Cl]` [cisplatin], the “cells dead / killed” value in the experiment on A549 (p53 wild type) is given as “less than 50%”.
On to `CO[C@H]1C[C@@H]2CC[C@@H](C)[C@@](O)(O2)C(=O)C(=O)N2CCCC[C@H]2C(=O)O[C@H]([C@H](C)C[C@@H]2CC[C@@H](OCCO)[C@H](OC)C2)CC(=O)[C@H](C)/C=C(\C)[C@@H](O)[C@@H](OC)C(=O)[C@H](C)C[C@H](C)/C=C/C=C/C=C/1C` [everolimus, Everolimus], for which the viability (as a rule, a read-out of living cells in per cent, often relative to untreated cells) at 0.016 µM in the experiment on p53-null H1299 cells [1] (Homo sapiens, NCI-H1299, mRNA 0.415 μg/ml, everolimus 16 nM) was above 80%. The cells still alive entry in the experiment on p53-null H1299 cells [1] (at 64 nM) and in the experiment on p53-null Hep3B cells [2] (at 64 nM) was “over 50%” throughout. For the same compound, the cell viability entry in the experiment with p53-null H1299 cells [1] (setting [9]) and in the experiment with p53-null Hep3B cells [2] (setting [9]) was “no significant decrease in cell viability” throughout. Moreover, the viability at 0.032 µM in the experiment on p53-null Hep3B cells [2] (Homo sapiens, Hep3B, mRNA 0.415 μg/ml, everolimus 32 nM) is around 70%. In addition, the cell apoptosis result in the experiment on H1299 cells and in the experiment on Hep3B cells was “moderate apoptotic cell death” in each case. The “autophagy activation (WB, autophagosomes by TEM, GFP-LC3B by CLSM)” value with p53-null Hep3B cells [3] and with p53-null H1299 cells [4] was “activation of autophagy” each time. For the same compound, the “LC3B-2 and LC3B-2/actin ratio (WB)” value in the experiment on p53-null Hep3B cells [3] (increase of everolimus concentration) was “upregulation of LC3B-2 and higher LC3B-2/actin ratios”. Further, the “mTOR pathway targets (p-mTOR and p-p70S6K; WB)” value in the experiment on p53-null Hep3B cells [3] (setting [9]) and in the experiment on p53-null H1299 cells [4] (setting [9]) was “substantially blocked” throughout. Further, the tumor growth entry in [5] is reported as “moderate anti-tumor activity”. For the same compound, the “autophagy in tumors (LC3B-2 relative to actin, BECN1; WB)” value in experiment [6] is “induced autophagy”. Also, the “orthotopic tumor growth / burden (bioluminescence)” value in experiment [7] is listed as “somewhat inhibited the growth of orthotopic tumors”. For the same compound, in experiment [8], the “metastatic nodules in the liver” value is listed as “moderate effects”.

The record behind these values is patent US20220016271A1, “METHODS FOR TREATING CANCER” (The Brigham and Women`s Hospital, Inc., priority 2018, published 2022).
